Laboratory results from patent US20060178293A1, “Cardiotonic polypeptides” (priority 2003, published 2006).

Tested on: isolated cardiomyocytes derived from adult rats
Settings: electrically stimulated; 0.35 μg/ml (FIG. 5)

## NCCc1ccc(O)c(O)c1 [inotropin]
  mechanical contractility (cell length changes), optically monitored: obvious increase in contractility
